Results on 6 compounds are retold here after article PMC8218531 (Structure (London, England : 1993), 2021).

The subject of experiment [1] is M^pro. The following applies: covalent inhibitors, ref Dai et al., 2020, Ma et al., Qiao et al., 2021; cited from earlier work.
Experiment [2] addresses T1, SARS-CoV-2 M^pro (Severe acute respiratory syndrome coronavirus 2, UniProt P0DTD1). The experiment can be described thus: Enzyme kinetics of M^pro with inhibitors. Format: biochemical. The note with it: for in vitro activity against M^pro in words: compounds of this study with hydrophilic groups in S4.
Experiment [3] has as its target T1, SARS-CoV-2 M^pro. The note with it: cited from earlier work.

SMILES strings stand for the structures. Read-outs that look alike come from different tables or passages of the source.

Regarding `O=CC(CC1CCNC1=O)NC(=O)C(CC1CCCCC1)NC(=O)c1cc2ccccc2[nH]1` (centres unmarked) [Compound 11a], in experiment [1], the IC50 in words result is “Low-nanomolar”.

Take `O=CC(CC1CCNC1=O)NC(=O)C(Cc1cccc(F)c1)NC(=O)c1cc2ccccc2[nH]1` (centres unmarked) [Compound 11b]: the IC50 in words entry in experiment [1] was “Low-nanomolar”.

As usually defined, the IC50 is the concentration needed to halve the response being measured. Regarding `CC(C)(O)CCOc1cc(Cl)cc(-c2cc(-c3c[nH]c(=O)[nH]c3=O)cn(-c3cccnc3)c2=O)c1` [Compound 29, 5-(3-(3-Chloro-5-(3-hydroxy-3-methylbutoxy)phenyl)-2-oxo-2H-[1,3'-bipyridin]-5-yl) pyrimidine-2,4(1H,3H)-dione], in experiment [2], the IC50 lay in the range of 0.25 to 0.5 µM and the “in vitro activity against M^pro in words” value is on record as “high-nanomolar range”. Moreover, the “decrease in activity compared with 11” value in experiment [2] (compared with compound 11) is recorded as “greater than 2 fold”.

With `O=C1CN(CCOc2cc(Cl)cc(-c3cc(-c4c[nH]c(=O)[nH]c4=O)cn(-c4cccnc4)c3=O)c2)CCN1` [Compound 50, 5-(3-(3-Chloro-5-(2-(3-oxopiperazin-1-yl)ethoxy)phenyl)-2-oxo-2H-[1,3'-bipyridin]-5-yl) pyrimidine-2,4(1H,3H)-dione], in experiment [2], the “in vitro activity against M^pro in words” value is recorded as “high-nanomolar range”.

With `CC(C)C[C@H](NC(=O)OCc1ccccc1)C(=O)N[C@@H](CC1CCNC1=O)C(O)S(=O)(=O)[O-].[Na+]` (some centres unmarked) [GC-376], the IC50 in words entry in experiment [1] is on record as “Low-nanomolar”.

Take `N#Cc1ccccc1-c1cc(-c2ccccn2)cn(-c2ccccc2)c1=O` [Perampanel, perampanel]: the IC50 in experiment [3] was 100 to 250 µM.
